{"source": "patent US6514540B1", "about": "“Therapeutic composition including plantain and aloe vera for treatment of arthritis and other afflictions” (priority 1999, dated 2003)", "test_system": "arthritic symptoms", "assay": "Clinical trials: topical application for arthritis symptoms", "type": "in vivo, human", "conditions": "Subject No. 1, inflamed finger joint; injected locally and up to 80 mg orally over four to five months", "protocol": "In addition, the entire finger and part of the hand was affected by the pain and the swelling resulting in restricted use of the hand.\nThe steroids were both injected locally and ingested in the form of up to 80 mg of prednazone, which was taken orally over a period of four to five months.\nDuring this period, the frequency of the application of the cream or lotion and heat gradually diminished to three times per day without a need for augmentation of the treatment with heat.\nOnset of these symptoms can result in a two- to three-fold increase in the size of a joint, with an inflammation of the surrounding tissue. This can occur in a matter of hours and affects the associated limb resulting in substantial pain, a loss of strength in the entire limb, sleep interruption (due to pain), and general malaise due to the intensity and continuous nature of the throbbing."}
{"smiles": "C[C@]12C=CC(=O)C=C1CC[C@@H]1[C@@H]2C(=O)C[C@@]2(C)[C@H]1CC[C@]2(O)C(=O)CO", "note": "[prednazone]", "values": [{"measurement": "relief of pain and swelling by conventional steroid treatment", "value": "some initial success in relieving both the pain and swelling, but upon elimination of the drug, the symptoms returned"}]}
